From patent US9556256B2, “Inhibition of cancer metastasis” (The Board of Trustees of The University of Arkansas, priority 2006, dated 2017)
“Also recorded” adds a separate entry of the source.

What was measured:
4T1 cells [1] = experiment: Lung colonies in mice with 4T1 fat pad tumors injected daily with CS; type: in vivo, mouse; conditions: 30 days after transplant
Method: FIG. 20. Chondroitin sulfate inhibits metastasis. Mice were injected with 4T1 cells into fact pads. After tumors were palpable (3-4 days after transplant) they were daily injected with CS intraperitoneally (ip) or subcutaneously (sc). Micer were sacrificed 30 days after transplant and lung colonies were quantified. Saline injection was used as a control. Comparisons were made between groups treated with CS and the saline group as control. NS, not significant. Average and SD with three animals per group is shown.
Mice were injected with 4T1 cells into fat pads. After tumors were palpable (3-4 days after transplant) the mice were daily injected with CS intraperitoneally (ip) or subcutaneously (sc). The mice were sacrificed 30 days after transplant and lung colonies were quantified. CS was dissolved in saline for injection. Saline control injection by either sc or ip routes produced similar results.

P-Selectin = P-Selectin (Mus musculus, UniProt Q01102); experiment: P-Selectin binding to 4T1 cells by flow cytometry; conditions: for P-Selectin binding to 4T1 cells after treatment of the cells: cells pre-treated with the agent; for Inhibition of P-Selectin binding to 4T1 cells: P-Selectin pre-treated with chondroitin sulfate, various concentrations
Method: Unless specified otherwise, flow cytometry was conducted as follows. Acquisition and analysis of data was performed on an EPICS®™ XL™.flow cytometer (Beckman Coulter, Inc., Fullerton, Calif.). Cells were passed to new flasks 24 hours before measuring lectin binding. The subconfluent monolayer of cells was detached with Cellstripper (Mediatech, Inc. Herndon, Va.) and washed with Dulbecco's phosphate buffered saline with Ca++ and Mg++ (Mediatech, Inc. Herndon, Va.). Cells were transferred to FACS buffer (Dulbecco's Phosphate Buffered Saline, 1% BSA and 0.1% Sodium Azide), counted and diluted to ˜1-2×10^6/ml. Monoclonal antibodies were added to a final concentration of 10 μg/ml. Cells were incubated on ice for 30 minutes, washed twice with FACS buffer, before the addition of FITC-conjugated streptavidin (2 μg/ml) for lectin analysis or FITC-conjugated goat anti-mouse immunoglobulin for monoclonal analysis. Cells were then washed and fixed with paraformaldehyde, before analysis by flow cytometry.
Recombinant E- and P-Selectin/Fc (human IgG) were purchased from R&D systems, Minneapolis, Minn. These recombinant molecules and FITC-conjugated anti-human IgG were used for binding analyses in flow cytometry assays. Human and murine recombinant selectins were used for human and murine cells, respectively.
Binding of recombinant P-Selectin to cells was examined after treatment with heparinase and chondroitinase ABC or in the presence of various concentrations of heparin and chondroitin sulfate A, B, C, and E (Seikagaku America, Falmouth, Mass.).

CHST11 = experiment: Real-time PCR gene expression in MCF-7 cells after 5azadC: CHST11; type: cell-based, human; conditions: for Relative expression level of CHST11 compared with no 5azadC: MCF-7 cells
Method: (§1) Real-time PCR was conducted to quantify mRNAs of five genes in four different human breast cancer tumor lines. The assayed genes were Syndecan-1 (SDC-1), Neuropilin-1 (NRP-1), Syndecan-4 (SDC-4), MCSP, and estrogen receptor 1. The tumor lines were MCF7, MDA-MD-468 (MDA-468), MDA-MB-231 (MDA-231), and MDA-MET. MCF-7 and MDA-468 are less aggressive. MDA-231 is an aggressive cell line, and MDA-MET is a subline of MDA-231 that metastasizes to bone. The quantity of each mRNA was assayed in comparison to 18s RNA. NRP-1, SDC-4 and MCSP expression was higher in the two more aggressive cell lines than in either of the two less aggressive cell lines. […] MCF-7 and MDA-468 are epithelial-like, while both MDA-231 and MDA-MET cells are mesenchymal type. Thus, high expression of NRP-1, MCSP and SDC-4 may be related to an epithelial to mesenchymal transition, which is a phenotypic event associated with more metastasis and aggressive growth.
(§2) In this experiment, gene expression levels were assayed by real-time PCR and comparison to 18S RNA levels. The dependence of gene expression on methylation levels was tested by treating tumor cells with varying levels of 5-aza-2′-deoxycytidine (5azadC), which is a demethylating agent (Table 6). Methylation of CpG islands is a well-known mechanism of gene control. Methylation decreases expression of genes whose promoters are methylated. The expression of NRP-1, CHST11, and MCPG each increased with increasing 5azadC concentration, which indicates they are under methylation control, with increased methylation repressing expression of the genes. Urokinase (uPA) was used as a positive control.

Synd-4 = experiment: Real-time PCR gene expression in MCF-7 cells after 5azadC: Synd-4; type: cell-based, human; conditions: for Relative expression level of Synd-4 compared with no 5azadC: MCF-7 cells
Method: as §1, §2

NRP-1 = experiment: Real-time PCR gene expression in MCF-7 cells after 5azadC: NRP-1; type: cell-based, human; conditions: for Relative expression level of NRP-1 compared with no 5azadC: MCF-7 cells
Method: as §1, §2

MCPG = experiment: Real-time PCR gene expression in MCF-7 cells after 5azadC: MCPG; type: cell-based, human; conditions: for Relative expression level of MCPG compared with no 5azadC: MCF-7 cells
Method: as §1, §2

uPA = experiment: Real-time PCR gene expression in MCF-7 cells after 5azadC: uPA; type: cell-based, human; conditions: positive control gene
Method: as §1, §2

4T1 cells [2] = experiment: Binding of thrombin-treated Calcein-AM-labeled mouse platelets to 4T1 cells; type: cell-based; conditions: 100 U/ml final concentration
Method: To examine if heparin can block the interaction of mouse platelets with tumor cells, 4T1 cells were mixed with Calcein-AM-labeled mouse platelets in the presence of mouse thrombin with or without heparin. Mouse thrombin was added to stimulate relocation of P-Selectin to platelet surface and tumor cells were then analyzed by flow cytometry for Calcein-AM staining, indicating platelet attachment. […] Blood was collected into sodium citrate (0.38% w/v) from naive mice and platelets were isolated from plasma by centrifugation. Platelet were washed and labeled with 5 μM final Calcein-AM (Molecular Probes, Eugene, Oreg., USA) for 15 minutes at 37° C. Platelets were then washed and incubated with 1 U/ml thrombin (Haematologic Technologies Inc, Essex Junction, Vt.) at 37° C. for 10 minutes. Heparin (Baxter Healthcare Corp., Deerfield, Ill., 100 U/ml final concentration) was then added to the mixture of platelets and thrombin, and incubated with 4T1 cells in flow cytometry tubes, for 15 minutes at room temperature, then acquired and analyzed by flow cytometry.

4T1 cells [3] = experiment: Spontaneous lung metastasis of 4T1 tumors in BALB/c mice after heparin, clonogenic assay; type: in vivo, mouse; conditions: 100 units 30 minutes before tumor cell inoculation; 26 days after inoculation
Method: BALB/c female mice (6-8 weeks old) were purchased from Harlan (Indianapolis, Ind.). Tumors were established as described earlier (9). Briefly, each mouse was inoculated subcutaneously in the abdominal mammary gland with 5×10^4 4 T1 cells. To establish a functional correlation between P-Selectin ligand expression of 4T1 cells and their metastatic ability in vivo, we injected mice with 100 units of heparin 30 minutes before tumor cell inoculation. Mice were sacrificed 26 days after tumor inoculation, lungs were harvested and metastatic cells were detected by clonogenic assay. […] All mice that were injected with PBS as control developed lung metastasis.

tumor cells = conditions: clinically relevant dose; reference 8; cited from earlier work

P-Selectin, sequence (Q01102 with tags, fused parts or gaps limits assumed): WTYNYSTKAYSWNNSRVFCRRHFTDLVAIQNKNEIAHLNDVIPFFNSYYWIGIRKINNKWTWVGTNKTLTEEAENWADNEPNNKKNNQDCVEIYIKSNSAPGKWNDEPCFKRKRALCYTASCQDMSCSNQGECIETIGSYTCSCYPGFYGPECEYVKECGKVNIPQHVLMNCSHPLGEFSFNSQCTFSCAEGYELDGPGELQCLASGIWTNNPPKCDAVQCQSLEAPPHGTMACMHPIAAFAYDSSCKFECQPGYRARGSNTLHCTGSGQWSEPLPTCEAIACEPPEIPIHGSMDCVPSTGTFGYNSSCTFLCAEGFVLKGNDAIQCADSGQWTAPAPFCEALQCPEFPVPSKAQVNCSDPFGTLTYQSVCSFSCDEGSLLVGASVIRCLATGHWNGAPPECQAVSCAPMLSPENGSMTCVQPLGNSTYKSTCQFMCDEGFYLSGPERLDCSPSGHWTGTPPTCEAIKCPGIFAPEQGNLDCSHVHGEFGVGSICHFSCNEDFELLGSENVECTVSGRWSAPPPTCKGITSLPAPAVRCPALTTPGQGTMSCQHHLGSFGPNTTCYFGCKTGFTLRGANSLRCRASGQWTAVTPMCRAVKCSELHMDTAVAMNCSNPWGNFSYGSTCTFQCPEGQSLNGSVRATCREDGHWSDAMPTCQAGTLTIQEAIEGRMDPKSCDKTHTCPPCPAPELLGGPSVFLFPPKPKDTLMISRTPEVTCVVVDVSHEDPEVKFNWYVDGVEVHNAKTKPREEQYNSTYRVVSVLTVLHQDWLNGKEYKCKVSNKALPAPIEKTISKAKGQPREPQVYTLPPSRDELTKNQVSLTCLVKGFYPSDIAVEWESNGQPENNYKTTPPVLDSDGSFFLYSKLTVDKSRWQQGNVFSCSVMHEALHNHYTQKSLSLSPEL

## chondroitin sulfate [CS]
4T1 cells [1]; 1 mg subcutaneously daily
  Metastasis (lung colonies) compared to saline control: decreased metastasis
4T1 cells [1]; 10 mg subcutaneously daily
  Metastasis (lung colonies) compared to saline control: decreased metastasis
4T1 cells [1]; intraperitoneally daily
  Metastasis (lung colonies) compared to saline control: did not appear to

## Neuraminidase: Neuraminidase (Vibrio cholerae) from Sigma, used at 50 mU/ml
P-Selectin
  P-Selectin binding to 4T1 cells after treatment of the cells: did not change

## [Na+].[O-][Cl+2]([O-])[O-] [sodium chlorate]
P-Selectin
  P-Selectin binding to 4T1 cells after treatment of the cells: elimination of P-Selectin binding in a majority of the cells

## Nc1ncn([C@H]2C[C@H](O)[C@@H](CO)O2)c(=O)n1 [5azadC, 5-aza-2′-deoxycytidine]
CHST11; 0.5 μM
  Relative expression level of CHST11 compared with no 5azadC: 1.34
CHST11; 1 μM
  Relative expression level of CHST11 compared with no 5azadC: 1.68
CHST11; 5 μM
  Relative expression level of CHST11 compared with no 5azadC: 3.7
CHST11; 20 μM
  Relative expression level of CHST11 compared with no 5azadC: 4.00
CHST11; trend over 0.5-20 μM
  Expression of CHST11 with increasing 5azadC concentration: increased
Synd-4; 0.5 μM
  Relative expression level of Synd-4 compared with no 5azadC: 0.7
Synd-4; 1 μM
  Relative expression level of Synd-4 compared with no 5azadC: 0.5
Synd-4; 5 μM
  Relative expression level of Synd-4 compared with no 5azadC: 0.8
Synd-4; 20 μM
  Relative expression level of Synd-4 compared with no 5azadC: 0.6
Synd-4; trend over 0.5-20 μM
  Syndecan-4 expression with 5azadC treatment: decreased or remained approximately constant
NRP-1; 0.5 μM
  Relative expression level of NRP-1 compared with no 5azadC: 1.04
NRP-1; 1 μM
  Relative expression level of NRP-1 compared with no 5azadC: 1.50
NRP-1; 5 μM
  Relative expression level of NRP-1 compared with no 5azadC: 1.72
NRP-1; 20 μM
  Relative expression level of NRP-1 compared with no 5azadC: 1.71
NRP-1; trend over 0.5-20 μM
  Expression of NRP-1 with increasing 5azadC concentration: increased
MCPG; 0.5 μM
  Relative expression level of MCPG compared with no 5azadC: 1.3
MCPG; 1 μM
  Relative expression level of MCPG compared with no 5azadC: 1.4
MCPG; 5 μM
  Relative expression level of MCPG compared with no 5azadC: 1.7
MCPG; 20 μM
  Relative expression level of MCPG compared with no 5azadC: 2.1
MCPG; trend over 0.5-20 μM
  Expression of MCPG with increasing 5azadC concentration: increased
uPA; 0.5 μM
  Relative expression level of uPA compared with no 5azadC: 2.2
uPA; 1 μM
  Relative expression level of uPA compared with no 5azadC: 2.9
uPA; 5 μM
  Relative expression level of uPA compared with no 5azadC: 3.2
uPA; 20 μM
  Relative expression level of uPA compared with no 5azadC: 3.9

## chondroitin sulfate A [CS A]
P-Selectin
  Inhibition of P-Selectin binding to 4T1 cells: minimal inhibitory effects

## chondroitin sulfate E [CS E]
P-Selectin; 4T1 cells
  Concentration giving complete inhibition of P-Selectin binding: 0.5 mg/mL
P-Selectin
  Inhibition of P-Selectin binding to 4T1 cells: inhibited P-Selectin binding; also recorded: effectively inhibit

## dermatan sulfate [CS B]
P-Selectin; 0.005-5.0 mg/ml
  Concentration dependence of inhibition of P-Selectin binding: inhibitory effects only at higher concentrations
P-Selectin
  Inhibition of P-Selectin binding to 4T1 cells: inhibited P-Selectin binding

## chondroitin sulfate C [CS C]
P-Selectin
  Inhibition of P-Selectin binding to 4T1 cells: minimal inhibitory effects

## O=C(O)CN(CCN(CC(=O)O)CC(=O)O)CC(=O)O [EDTA]
P-Selectin; high concentrations (20 and 40 mM)
  P-Selectin reactivity with 4T1 cells in presence of EDTA: inhibited P-Selectin reactivity only at high concentrations
P-Selectin; low concentration (10 mM)
  P-Selectin reactivity with 4T1 cells in presence of EDTA: not blocked

## Heparin
P-Selectin; corresponds to 120 units
  Effective dose for inhibition of P-Selectin binding, as concentration: 0.7 mg/mL
P-Selectin; sLex-Neg 4T1 cell variant, recombinant P-Selectin pre-incubated with 0.7-120 Units heparin
  Inhibition of P-Selectin binding to cells: efficiently inhibited P-Selectin binding to cells in a dose dependent manner
P-Selectin; sLex-Neg 4T1 cells, FIG. 10
  Effective dose for inhibition of P-Selectin binding: 120 units
4T1 cells [2]
  Binding of thrombin treated platelets to tumor cells: reduced
4T1 cells [3]
  Mice with complete absence of metastases in lung: six mice out of total of seven
  Number of mice positive for established lung metastases, Positive (total): *1 (7)
Tumor cells
  Lung metastasis in experimental models: inhibited lung metastasis
